Measurements published in ChEMBL document CHEMBL4706712, “Discovery and antitumor activity of Benzo[d]imidazol-containing 2,4-diarylaminopyrimidine analogues as ALK inhibitors with mutation-combating effects” (Bioorg Med Chem, 2021).

What was measured:
KARPAS-299 = assay: cells; conditions: Homo sapiens, KARPAS-299, 72 h
Description: Antiproliferative activity against human KARPAS-299 cells assessed as reduction in cell growth measured after 72 hrs by MTT assay

A549 = assay: cells; conditions: Homo sapiens, A549, 72 h
Description: Antiproliferative activity against human A549 cells assessed as reduction in cell growth measured after 72 hrs by MTT assay

NCI-H2228 = assay: cells; conditions: Homo sapiens, NCI-H2228, 72 h
Description: Antiproliferative activity against human NCI-H2228 cells assessed as reduction in cell growth measured after 72 hrs by MTT assay

[1] = molecular target: ALK tyrosine kinase receptor (Homo sapiens, UniProt Q9UM73); assay: Inhibition of human N-terminal GST-fused ALK cytoplasmic domain (1058 to 1620 residues) expressed in baculovirus infected Sf21 insect cells using Srctide as substrate measured after 1 hr by mobility shift assay
[2] = molecular target: ALK tyrosine kinase receptor (Homo sapiens, UniProt Q9UM73, L1196M); assay: Inhibition of human N-terminal GST-fused ALK L1196M mutant cytoplasmic domain (1058 to 1620 residues) expressed in baculovirus infected Sf21 insect cells using Srctide as substrate measured after 1 hr by mobility shift assay
[3] = molecular target: Epidermal growth factor receptor (Homo sapiens, UniProt P00533); assay: Inhibition of N-terminal GST-tagged human EGFR cytoplasmic domain (669 to 1210 residues) expressed in baculovirus infected Sf21 insect cells using Srctide as substrate measured after 1 hr by mobility shift assay
[4] = molecular target: ALK tyrosine kinase receptor (Homo sapiens, UniProt Q9UM73, G1202R); assay: Inhibition of human N-terminal GST-fused ALK G1202R mutant cytoplasmic domain (1058 to 1620 residues) expressed in baculovirus infected Sf21 insect cells using Srctide as substrate measured after 1 hr by mobility shift assay
[5] = molecular target: T1, Receptor-type tyrosine-protein kinase FLT3 (Homo sapiens, UniProt P36888); assay: Inhibition of N-terminal GST-tagged human FLT3 cytoplasmic domain (564 to 993 residues) expressed in baculovirus infected Sf21 insect cells using Srctide as substrate measured after 1 hr by mobility shift assay
T1 sequence (P36888 whole entry): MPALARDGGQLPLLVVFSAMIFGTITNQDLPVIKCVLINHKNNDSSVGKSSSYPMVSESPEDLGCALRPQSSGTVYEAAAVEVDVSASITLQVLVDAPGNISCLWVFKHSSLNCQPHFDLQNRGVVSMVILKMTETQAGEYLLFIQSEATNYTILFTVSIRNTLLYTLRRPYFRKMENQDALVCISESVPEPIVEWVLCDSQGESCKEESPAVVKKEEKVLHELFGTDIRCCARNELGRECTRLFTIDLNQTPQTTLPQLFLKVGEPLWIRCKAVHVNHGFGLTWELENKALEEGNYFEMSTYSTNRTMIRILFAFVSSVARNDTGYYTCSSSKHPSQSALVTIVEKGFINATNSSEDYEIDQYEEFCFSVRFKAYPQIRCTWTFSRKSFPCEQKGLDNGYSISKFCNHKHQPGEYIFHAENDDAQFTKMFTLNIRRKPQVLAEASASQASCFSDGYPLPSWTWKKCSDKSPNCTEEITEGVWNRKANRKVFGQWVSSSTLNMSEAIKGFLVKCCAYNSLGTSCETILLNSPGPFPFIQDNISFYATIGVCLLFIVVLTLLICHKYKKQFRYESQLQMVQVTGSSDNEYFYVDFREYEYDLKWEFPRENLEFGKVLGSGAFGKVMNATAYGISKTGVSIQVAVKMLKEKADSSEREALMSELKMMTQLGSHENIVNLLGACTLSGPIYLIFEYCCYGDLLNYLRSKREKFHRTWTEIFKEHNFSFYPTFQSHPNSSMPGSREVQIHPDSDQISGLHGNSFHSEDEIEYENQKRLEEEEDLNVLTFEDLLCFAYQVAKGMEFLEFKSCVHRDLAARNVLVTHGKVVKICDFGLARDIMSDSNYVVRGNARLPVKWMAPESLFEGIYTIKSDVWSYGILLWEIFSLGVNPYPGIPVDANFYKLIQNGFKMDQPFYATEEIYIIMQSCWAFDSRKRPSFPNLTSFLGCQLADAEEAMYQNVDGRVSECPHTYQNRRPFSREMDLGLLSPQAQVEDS

Sequence of Epidermal growth factor receptor (P00533 whole entry, the tested form may be a part): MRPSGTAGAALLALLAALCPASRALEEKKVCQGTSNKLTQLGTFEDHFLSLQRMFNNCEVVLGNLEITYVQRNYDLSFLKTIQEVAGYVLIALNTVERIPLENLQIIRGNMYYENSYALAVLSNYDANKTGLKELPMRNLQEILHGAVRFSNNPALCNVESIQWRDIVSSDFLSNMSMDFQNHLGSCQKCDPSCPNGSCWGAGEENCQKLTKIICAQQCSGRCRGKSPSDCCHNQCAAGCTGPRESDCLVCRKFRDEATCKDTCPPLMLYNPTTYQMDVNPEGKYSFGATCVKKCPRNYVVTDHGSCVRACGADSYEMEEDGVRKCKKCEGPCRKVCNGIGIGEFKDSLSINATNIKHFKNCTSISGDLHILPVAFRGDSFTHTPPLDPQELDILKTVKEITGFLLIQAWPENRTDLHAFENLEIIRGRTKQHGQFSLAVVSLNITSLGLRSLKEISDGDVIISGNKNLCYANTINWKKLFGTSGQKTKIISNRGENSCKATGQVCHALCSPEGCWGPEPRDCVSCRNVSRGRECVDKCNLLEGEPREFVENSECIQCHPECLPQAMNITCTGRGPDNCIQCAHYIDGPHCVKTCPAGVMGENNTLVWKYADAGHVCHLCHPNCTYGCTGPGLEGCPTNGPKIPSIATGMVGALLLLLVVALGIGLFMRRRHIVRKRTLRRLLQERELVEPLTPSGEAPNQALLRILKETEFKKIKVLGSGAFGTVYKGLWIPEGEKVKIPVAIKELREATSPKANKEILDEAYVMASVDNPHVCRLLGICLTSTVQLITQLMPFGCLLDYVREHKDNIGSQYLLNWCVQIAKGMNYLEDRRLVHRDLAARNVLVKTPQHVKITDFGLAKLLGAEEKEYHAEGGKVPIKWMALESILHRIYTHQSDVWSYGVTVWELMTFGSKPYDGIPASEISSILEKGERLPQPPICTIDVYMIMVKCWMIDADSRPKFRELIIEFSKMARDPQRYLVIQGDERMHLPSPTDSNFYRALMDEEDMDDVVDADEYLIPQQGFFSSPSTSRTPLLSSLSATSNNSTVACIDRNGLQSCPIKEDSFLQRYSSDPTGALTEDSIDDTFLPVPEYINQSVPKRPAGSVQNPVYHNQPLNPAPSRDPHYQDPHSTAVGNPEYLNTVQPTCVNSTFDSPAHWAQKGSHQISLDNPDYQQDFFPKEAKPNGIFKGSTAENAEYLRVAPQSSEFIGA
Sequence of ALK tyrosine kinase receptor (Homo sapiens, UniProt Q9UM73) (Q9UM73 whole entry, the tested form may be a part): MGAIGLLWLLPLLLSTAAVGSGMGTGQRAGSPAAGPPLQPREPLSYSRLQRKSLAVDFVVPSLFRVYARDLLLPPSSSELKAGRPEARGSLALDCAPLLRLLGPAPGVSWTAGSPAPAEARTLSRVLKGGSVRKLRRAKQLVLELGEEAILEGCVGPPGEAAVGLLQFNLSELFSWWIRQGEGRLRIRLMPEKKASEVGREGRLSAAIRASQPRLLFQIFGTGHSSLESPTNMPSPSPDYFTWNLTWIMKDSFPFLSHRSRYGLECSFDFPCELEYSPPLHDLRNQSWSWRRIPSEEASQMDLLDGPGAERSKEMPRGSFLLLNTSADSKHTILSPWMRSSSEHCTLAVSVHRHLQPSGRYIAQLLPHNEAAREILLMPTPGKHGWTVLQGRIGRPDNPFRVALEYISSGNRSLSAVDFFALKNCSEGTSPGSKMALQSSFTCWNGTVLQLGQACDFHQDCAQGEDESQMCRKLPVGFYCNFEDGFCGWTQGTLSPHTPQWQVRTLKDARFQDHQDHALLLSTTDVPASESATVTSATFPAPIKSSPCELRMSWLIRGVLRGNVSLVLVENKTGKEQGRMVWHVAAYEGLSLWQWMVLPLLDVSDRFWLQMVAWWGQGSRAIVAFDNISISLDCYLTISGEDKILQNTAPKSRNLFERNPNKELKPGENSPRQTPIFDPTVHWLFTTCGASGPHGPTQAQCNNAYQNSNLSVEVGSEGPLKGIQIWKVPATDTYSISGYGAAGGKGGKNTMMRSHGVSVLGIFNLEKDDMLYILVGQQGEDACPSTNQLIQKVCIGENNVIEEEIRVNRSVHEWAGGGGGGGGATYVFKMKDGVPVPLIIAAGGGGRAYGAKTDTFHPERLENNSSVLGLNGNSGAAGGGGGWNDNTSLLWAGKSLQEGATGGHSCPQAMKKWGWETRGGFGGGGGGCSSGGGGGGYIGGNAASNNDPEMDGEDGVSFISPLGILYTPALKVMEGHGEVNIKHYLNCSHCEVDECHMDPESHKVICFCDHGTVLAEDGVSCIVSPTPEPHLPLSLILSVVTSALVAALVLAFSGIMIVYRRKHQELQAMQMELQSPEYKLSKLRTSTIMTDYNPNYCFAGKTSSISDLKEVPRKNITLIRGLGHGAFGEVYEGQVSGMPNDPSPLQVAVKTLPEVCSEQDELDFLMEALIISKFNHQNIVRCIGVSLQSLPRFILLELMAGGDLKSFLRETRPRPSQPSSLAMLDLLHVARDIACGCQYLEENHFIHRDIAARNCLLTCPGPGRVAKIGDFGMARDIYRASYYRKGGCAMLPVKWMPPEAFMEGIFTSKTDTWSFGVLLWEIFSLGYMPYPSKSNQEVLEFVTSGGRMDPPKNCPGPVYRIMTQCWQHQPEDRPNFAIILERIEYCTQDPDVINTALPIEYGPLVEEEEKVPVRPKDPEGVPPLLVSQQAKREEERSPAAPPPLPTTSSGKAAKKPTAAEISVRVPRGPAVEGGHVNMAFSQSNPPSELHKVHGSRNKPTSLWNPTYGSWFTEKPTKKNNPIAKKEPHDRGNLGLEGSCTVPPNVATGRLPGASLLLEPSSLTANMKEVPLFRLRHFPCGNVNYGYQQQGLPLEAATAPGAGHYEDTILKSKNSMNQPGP
Sequence of ALK tyrosine kinase receptor (Homo sapiens, UniProt Q9UM73, G1202R) (Q9UM73 19-1620 G1202R limits assumed): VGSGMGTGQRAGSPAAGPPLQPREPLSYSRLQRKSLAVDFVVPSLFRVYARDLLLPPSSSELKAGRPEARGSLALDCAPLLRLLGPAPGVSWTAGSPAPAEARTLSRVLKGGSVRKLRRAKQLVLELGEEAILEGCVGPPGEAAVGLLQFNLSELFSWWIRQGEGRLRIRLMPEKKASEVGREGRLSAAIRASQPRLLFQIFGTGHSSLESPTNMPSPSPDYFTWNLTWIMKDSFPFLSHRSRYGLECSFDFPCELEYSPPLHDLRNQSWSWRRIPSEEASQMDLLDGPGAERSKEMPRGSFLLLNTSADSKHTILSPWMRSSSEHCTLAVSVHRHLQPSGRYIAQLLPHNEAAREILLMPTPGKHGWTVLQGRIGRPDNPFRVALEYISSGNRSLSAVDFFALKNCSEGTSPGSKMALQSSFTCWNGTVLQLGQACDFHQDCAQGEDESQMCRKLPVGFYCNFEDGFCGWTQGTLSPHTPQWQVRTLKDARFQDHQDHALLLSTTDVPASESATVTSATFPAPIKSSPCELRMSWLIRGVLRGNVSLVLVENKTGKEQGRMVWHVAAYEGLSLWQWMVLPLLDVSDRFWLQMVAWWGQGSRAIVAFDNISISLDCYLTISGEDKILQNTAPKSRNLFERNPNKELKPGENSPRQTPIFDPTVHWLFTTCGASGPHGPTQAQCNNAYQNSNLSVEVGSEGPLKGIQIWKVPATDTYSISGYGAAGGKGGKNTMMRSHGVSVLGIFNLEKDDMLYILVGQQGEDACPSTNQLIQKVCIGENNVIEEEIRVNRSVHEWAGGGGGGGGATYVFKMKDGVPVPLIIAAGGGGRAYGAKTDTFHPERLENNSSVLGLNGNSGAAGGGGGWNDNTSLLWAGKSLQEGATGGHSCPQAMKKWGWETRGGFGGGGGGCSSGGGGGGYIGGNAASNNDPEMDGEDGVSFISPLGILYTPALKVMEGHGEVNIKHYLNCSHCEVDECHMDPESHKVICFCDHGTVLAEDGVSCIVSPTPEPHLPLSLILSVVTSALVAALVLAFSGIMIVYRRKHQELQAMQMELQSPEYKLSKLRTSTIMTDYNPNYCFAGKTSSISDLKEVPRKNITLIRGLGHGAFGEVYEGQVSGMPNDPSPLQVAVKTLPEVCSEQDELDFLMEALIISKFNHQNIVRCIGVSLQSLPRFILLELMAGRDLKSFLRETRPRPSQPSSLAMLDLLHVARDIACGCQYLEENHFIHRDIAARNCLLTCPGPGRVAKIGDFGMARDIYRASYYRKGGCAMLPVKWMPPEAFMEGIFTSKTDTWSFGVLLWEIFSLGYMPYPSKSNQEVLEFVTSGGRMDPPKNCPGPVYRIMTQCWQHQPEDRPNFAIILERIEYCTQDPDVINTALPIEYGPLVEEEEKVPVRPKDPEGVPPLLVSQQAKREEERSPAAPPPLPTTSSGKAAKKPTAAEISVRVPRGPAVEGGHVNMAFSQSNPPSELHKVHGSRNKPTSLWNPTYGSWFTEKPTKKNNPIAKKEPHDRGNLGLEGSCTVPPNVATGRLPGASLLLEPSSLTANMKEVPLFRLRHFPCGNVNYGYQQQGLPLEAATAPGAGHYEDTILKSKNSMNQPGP

SMILES | IC50 (KARPAS-299) [nM] | IC50 (A549) [nM] | IC50 (NCI-H2228) [nM] | IC50 [1] [nM] | IC50 [2] [nM] | IC50 [3] [nM] | IC50 [4] [nM] | IC50 [5] [nM]
CS(=O)(=O)Nc1ccccc1Nc1nc(Nc2ccc3nc(CN4CCOCC4)[nH]c3c2)ncc1Cl | 798 | > 10000 | 1070 | – | – | – | – | –
CS(=O)(=O)Nc1ccccc1Nc1nc(Nc2ccc3nc(CN4CCCCC4)[nH]c3c2)ncc1Cl | 68 | 6010 | 429 | 5.3 | 8.4 | > 1000 | 7.1 | 186
CN1CCN(Cc2nc3ccc(Nc4ncc(Cl)c(Nc5ccccc5C(=O)N(C)C)n4)cc3[nH]2)CC1 | – | – | – | 2.7 | 3.8 | – | 5.7 | > 200
CS(=O)(=O)Nc1ccccc1Nc1nc(Nc2ccc3nc(CN4CCC(O)CC4)[nH]c3c2)ncc1Cl | 1290 | > 10000 | 1300 | – | – | – | – | –
CN(C)Cc1nc2ccc(Nc3ncc(Cl)c(Nc4ccccc4NS(C)(=O)=O)n3)cc2[nH]1 | 56 | 3010 | 326 | 4 | 3.7 | > 1000 | 8.2 | > 200
CCN(CC)Cc1nc2ccc(Nc3ncc(Cl)c(Nc4ccccc4NS(C)(=O)=O)n3)cc2[nH]1 | 79 | > 10000 | 1230 | – | – | – | – | –
CC(=O)Nc1ccccc1Nc1nc(Nc2ccc3nc(CN4CCN(CCO)CC4)[nH]c3c2)ncc1Cl | 1350 | > 10000 | 2360 | – | – | – | – | –
CC(=O)Nc1ccccc1Nc1nc(Nc2ccc3nc(CN(C)C)[nH]c3c2)ncc1Cl | 79 | > 10000 | 507 | – | – | – | – | –
CN(C)Cc1nc2ccc(Nc3ncc(Cl)c(Nc4ccccc4C(=O)N(C)C)n3)cc2[nH]1 | 47 | > 10000 | 127 | 3.2 | 3.8 | > 1000 | 6.9 | > 200
CC1CCN(Cc2nc3ccc(Nc4ncc(Cl)c(Nc5ccccc5NS(C)(=O)=O)n4)cc3[nH]2)CC1 | 136 | > 10000 | 770 | – | – | – | – | –
CS(=O)(=O)Nc1ccccc1Nc1nc(Nc2ccc3nc(CN4CCSCC4)[nH]c3c2)ncc1Cl | 1840 | > 10000 | 3230 | – | – | – | – | –
CCN1CCN(Cc2nc3ccc(Nc4ncc(Cl)c(Nc5ccccc5NS(C)(=O)=O)n4)cc3[nH]2)CC1 | 432 | > 10000 | 1030 | – | – | – | – | –
CN(C)C(=O)c1ccccc1Nc1nc(Nc2ccc3nc(CN4CCCC4)[nH]c3c2)ncc1Cl | 54 | > 10000 | 291 | 3.4 | 5.3 | > 1000 | 13.3 | 103
CN1CCN(Cc2nc3ccc(Nc4ncc(Cl)c(Nc5ccccc5NS(C)(=O)=O)n4)cc3[nH]2)CC1 | – | – | – | 3.6 | 4.9 | – | 7 | 135
Cc1cc(Nc2ncc(Cl)c(Nc3ccccc3S(=O)(=O)C(C)C)n2)c(OC(C)C)cc1C1CCNCC1 [CERITINIB] | 31 | – | 107 | – | – | – | – | 86.4
CC(C)N(Cc1nc2ccc(Nc3ncc(Cl)c(Nc4ccccc4NS(C)(=O)=O)n3)cc2[nH]1)C(C)C | 2010 | 5370 | 3790 | – | – | – | – | –
CS(=O)(=O)Nc1ccccc1Nc1nc(Nc2ccc3nc(CN4CCN(CCO)CC4)[nH]c3c2)ncc1Cl | 1030 | > 10000 | 1720 | – | – | – | – | –

Now from value to molecule, other results behind:

IC50 (KARPAS-299) [nM] | IC50 (A549) [nM] | IC50 (NCI-H2228) [nM] | SMILES | IC50 [1] [nM] | IC50 [2] [nM] | IC50 [3] [nM] | IC50 [4] [nM] | IC50 [5] [nM]
77 | > 10000 | 632 | CNC(=O)c1ccccc1Nc1nc(Nc2ccc3nc(CN4CCC(C)CC4)[nH]c3c2)ncc1Cl | – | – | – | – | –
249 | > 10000 | 1290 | CN(C)C(=O)c1ccccc1Nc1nc(Nc2ccc3nc(CN4CCN(CCO)CC4)[nH]c3c2)ncc1Cl | – | – | – | – | –
1230 | 2930 | 1450 | CCN(CC)Cc1nc2ccc(Nc3ncc(Cl)c(Nc4ccccc4C(=O)N(C)C)n3)cc2[nH]1 | – | – | – | – | –
833 | > 10000 | 1270 | CN(C)C(=O)c1ccccc1Nc1nc(Nc2ccc3nc(CN4CCOCC4)[nH]c3c2)ncc1Cl | – | – | – | – | –
62 | 1860 | 347 | CS(=O)(=O)Nc1ccccc1Nc1nc(Nc2ccc3nc(CN4CCCC4)[nH]c3c2)ncc1Cl | – | – | – | – | –
57 | 1870 | 337 | CN(C)C(=O)c1ccccc1Nc1nc(Nc2ccc3nc(CN4CCCCC4)[nH]c3c2)ncc1Cl | – | – | – | – | –
193 | 6030 | 975 | CC(=O)Nc1ccccc1Nc1nc(Nc2ccc3nc(CN4CCC(C)CC4)[nH]c3c2)ncc1Cl | – | – | – | – | –
1290 | 7360 | 2350 | CN(C)C(=O)c1ccccc1Nc1nc(Nc2ccc3nc(CN4CCSCC4)[nH]c3c2)ncc1Cl | – | – | – | – | –
62 | 4790 | 338 | CNC(=O)c1ccccc1Nc1nc(Nc2ccc3nc(CN(C)C)[nH]c3c2)ncc1Cl | – | – | – | – | –
391 | > 10000 | 1310 | CNC(=O)c1ccccc1Nc1nc(Nc2ccc3nc(CN4CCN(CCO)CC4)[nH]c3c2)ncc1Cl | – | – | – | – | –
107 | > 10000 | 230 | CC(=O)Nc1ccccc1Nc1nc(Nc2ccc3nc(CN4CCN(C)CC4)[nH]c3c2)ncc1Cl | – | – | – | – | –
203 | > 10000 | 583 | CCN1CCN(Cc2nc3ccc(Nc4ncc(Cl)c(Nc5ccccc5C(=O)N(C)C)n4)cc3[nH]2)CC1 | – | – | – | – | –
